Experimental data: patent US5321030A, “Creatine analogs having antiviral activity” (priority 1991, dated 1994)
≈ marks a conversion by molar mass, not a printed value. Where “and” joins values, the source holds several entries; their conditions need not be identical. Equal entries are not always repeated. Where two headings read alike, the source gives them in different places.

What was measured:
[1] = system: Varicella-Zoster Virus, strain Oka; assay: microbe, parasite or virus in culture; format: cell-based; parameters: TI50 (CD50 ÷ ED50): unit not given beside the values
in vitro = details: guinea pig, gpe cells
[2] = Dietary feeding of cyclocreatine, tolerance and uptake; details: mice, up to 1% of diet for 2 weeks or over 4 weeks
HSV-2 = assay: Cytopathic effect (CPE) assay, HSV-2
[3] = Cytotoxicity in plaque reduction assay, MRC-5 cells; format: cell-based, human; details: human, mrc-5 cells, read-out: CD50 (the source's name)
Description: (§1) Cytotoxicity was determined by examination of cells (located away from plaques) in infected wells which had been treated with drug.

MRC-5 cells = assay: as above; format: cell-based, human; details: HCMV experiments, 8 days of exposure
Description: as §1

[4] = Cytotoxicity in plaque reduction assay, CV-1 cells; format: cell-based, African Green Monkey; details: monkey, Table 9B, read-out: CD50 (the source's name)
[5] = system: Influenza B/Hong Kong/5/72; assay: CPE-reduction assay, Influenza B in MDCK cells; format: cell-based; details: 62.5 μg/ml-4 mg/ml; only at the highest concentration
Description: Cyclocreatine was prepared at a concentration of 100 mg/ml in MEM, without serum, 0.18% NaHCO3, 50 μg/ml gentamicin. Further dilutions (2-fold dilution scheme) were made in MEM without serum.
Cells (0.2 ml/well) were seeded in 96-well flat bottom tissue culture plates, (Corning Glass Works, Corning, N.Y.). The cells were incubated overnight in order to establish cell monolayers. Growth medium was decanted from the 96-well plates and various dilutions of compound were added to wells of the plate (4 wells/dilution; 0.1 ml/well). Medium alone was added to uninfected cell and virus (no drug) control wells (0.1 ml/well). Virus, diluted in test medium (0.1 ml final volume), was added to all compound test wells of the plate (3 wells/dilution) and to 9 virus control wells. Test medium (0.1 ml/well) without virus was added to all toxicity control wells (1 well/dilution for each compound tested) and to 3 uninfected cell control wells.
The plates were incubated at 37° C. until virus control wells (no drug) had CPE readings near 100% CPE. Cells were then examined microscopically for virus CPE and graded on a scale of 0-4, with 0 being no CPE and 4 being 100% CPE. The cells in toxicity control wells were observed microscopically and graded for morphological changes due to cytotoxicity. […]

Vero cells = details: monkey
Adenovirus type 5 = assay: CPE assay, adenovirus in DU 145 cells; format: cell-based; details: 0.3125-10 mg/ml, FIG. 15A
Description: Adenovirus type 5 was obtained from the ATCC. DU 145 cells were obtained from the American Type Culture Collection. Cells were infected with virus and cyclocreatine was assayed for antiviral activity using the cytopathic effect (CPE) assay essentially as described in Example 1.

creatine kinase = creatine kinase (Oryctolagus cuniculus, UniProt P00563); assay: Phosphorylation by creatine kinase, coupled assay with pyruvate kinase and LDH; format: biochemical; details: 40 mM
Sequence of creatine kinase (P00563 whole entry): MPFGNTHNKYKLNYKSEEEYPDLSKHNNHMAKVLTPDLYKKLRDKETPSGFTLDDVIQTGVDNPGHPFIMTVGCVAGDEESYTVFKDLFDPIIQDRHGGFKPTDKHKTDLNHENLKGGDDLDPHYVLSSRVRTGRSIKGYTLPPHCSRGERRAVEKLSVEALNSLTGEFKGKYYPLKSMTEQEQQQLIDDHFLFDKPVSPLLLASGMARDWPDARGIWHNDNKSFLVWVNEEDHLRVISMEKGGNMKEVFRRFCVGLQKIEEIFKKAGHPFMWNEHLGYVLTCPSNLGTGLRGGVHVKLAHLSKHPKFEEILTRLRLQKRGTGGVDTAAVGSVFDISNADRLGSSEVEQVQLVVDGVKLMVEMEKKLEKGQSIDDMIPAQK
Description: Compound 5/6 (AM 361), where R=CH3, was prepared as described above and assayed for phosphorylation by creatine kinase in a coupled assay with pyruvate kinase and lactate dehydrogenase (LDH) as described (Bergmeyer, H. U., ed. (1974), In: Methods of Enzymatic Analysis, Second English Edition, Volume 4, (Verlag Chemie Weinheim and Academic Press, Inc.: New York, London) pp. 1772-1779). Each compound listed in Table 11 below was tested at a concentration of 40 mM. Compound 5/6 (AM 361) was slowly phosphorylated.

[6] = Cytotoxicity in plaque reduction assay, Hs68 cells; format: cell-based; details: human, Table 5, read-out: CD50 (the source's name)
Description: as §1

[7] = Human alphaherpesvirus 3, CV-1, read-out: % Reduction
[8] = Human alphaherpesvirus 3, MRC5, read-out: % Reduction

Structure (SMILES): NC1=NCCN1CC(=O)O [cyclocreatine, 1-carboxymethyl-2-iminoimidazolidine]
- TI50 (CD50 ÷ ED50) ([1]; CV-1 cells, Table 9B): ~ 54
- # Plaques ([1]; CV-1 cells, AM-285 156 μg/ml, virus control 70.25 ± 6.9): 28.5
- # Plaques ([1]; CV-1 cells, AM-285 312.5 μg/ml, virus control 70.25 ± 6.9): 12
- # Plaques ([1]; CV-1 cells, AM-285 625 μg/ml, virus control 70.25 ± 6.9): 3
- # Plaques ([1]; CV-1 cells, AM-285 1250 μg/ml, virus control 70.25 ± 6.9): 1
- # Plaques ([1]; CV-1 cells, AM-285 2500 μg/ml, virus control 70.25 ± 6.9): 0
- # Plaques ([1]; CV-1 cells, AM-285 5000 μg/ml, virus control 70.25 ± 6.9): 0
- # Plaques ([1]; CV-1 cells, AM-285 10000 μg/ml, virus control 70.25 ± 6.9): 0
- inhibition at 156 µg/mL [1, 7]: 59%
- inhibition at 312.5 µg/mL [1, 7]: 83%
- inhibition at 625 µg/mL [1, 7]: 96%
- inhibition at 1250 µg/mL [1, 7]: 98%
- inhibition at 2500 µg/mL [1, 7]: 100%
- inhibition at 5000 µg/mL [1, 7]: 100%
- inhibition at 10000 µg/mL [1, 7]: 100%
- EC50 ([1]; Human alphaherpesvirus 3, CV-1, read-out: ED50): < 156 µg/mL
- EC50 ([1]; Human alphaherpesvirus 3, CV-1, read-out: ED50, approximate value in parentheses): ~107 µg/mL (≈ 0.747 mM)
- inhibition at 62.5 µg/mL [1, 8]: 0%
- inhibition at 125 µg/mL [1, 8]: 0%
- inhibition at 260 µg/mL [1, 8]: 36%
- inhibition at 500 µg/mL [1, 8]: 42%
- inhibition at 1000 µg/mL [1, 8]: 71%
- inhibition at 2000 µg/mL [1, 8]: 91%
- inhibition at 4000 µg/mL [1, 8]: 100%
- EC50 ([1]; Human alphaherpesvirus 3, MRC5, read-out: ED50): 564 µg/mL (≈ 3.94 mM)
- TI50 (CD50 ÷ ED50) ([1]; MRC-5 cells, Table 9A): > 7.1
- # Plaques ([1]; MRC-5 cells, AM-285 62.5 μg/ml, virus control 32.7 ± 9.3): 26
- # Plaques ([1]; MRC-5 cells, AM-285 125 μg/ml, virus control 32.7 ± 9.3): 26
- # Plaques ([1]; MRC-5 cells, AM-285 260 μg/ml, virus control 32.7 ± 9.3): 21
- # Plaques ([1]; MRC-5 cells, AM-285 500 μg/ml, virus control 32.7 ± 9.3): 19
- # Plaques ([1]; MRC-5 cells, AM-285 1000 μg/ml, virus control 32.7 ± 9.3): 9.5
- # Plaques ([1]; MRC-5 cells, AM-285 2000 μg/ml, virus control 32.7 ± 9.3): 3
- # Plaques ([1]; MRC-5 cells, AM-285 4000 μg/ml, virus control 32.7 ± 9.3): 0
- CC50 (in vitro): > 10000 µg/mL
- tolerance of dietary cyclocreatine [2]: without gross adverse effects
- EC50 (HSV-2; Human alphaherpesvirus 2, Vero, read-out: ED50): 1690 µg/mL and 11 mM
- EC (60 or 70) (HSV-2; Human alphaherpesvirus 2, Vero, read-out: concentration required to inhibit cytopathogenicity by 60% or 70%): 35000 µM
- effect on cytopathic effect (HSV-2; contact-inhibited A459 cells): inhibited the cytopathic effect
- effect on cytopathic effect (HSV-2; contact-inhibited BalbC/3T3 cells, FIG. 4A): inhibited the cytopathic effect
- effect on cytopathic effect (HSV-2; serum-starved DU145 cells, FIG. 6A): inhibited the cytopathic effect
- TI (HSV-2; serum-starved Vero cells): > 5.5
- effect on cytopathic effect (HSV-2; serum-starved Vero cells, FIG. 2A): inhibits the cytopathic effect
- CC50 ([3]; Table 4): > 4000 µg/mL
- CC50 ([3]; Table 6): > 10000 µg/mL
- CC50 ([3]; Table 7): > 10000 µg/mL
- CC50 ([3]; Table 9A): > 4000 µg/mL
- visible cytotoxicity (MRC-5 cells): no visible signs of cytotoxicity
- CC50 [4]: 5790 µg/mL (≈ 40.4 mM)
- effect on CPE [5]: slight inhibitory effect
- CC50 (Vero cells): > 28 mM
- CD50 (Vero cells): greater than 4 mg/ml
- effect on cytopathic effect (Adenovirus type 5): inhibited the cytopathic effect
- % Rate of Creatine (creatine kinase): 46%
- Δ in Absorbance/min (creatine kinase): 0.54
- CC50 [6]: > 4000 µg/mL
